Patent US12558342B2, “2-[2-({12,12-dimethyl-4-oxo-6-phenyl-3,11-dioxatricyclo[8.4.0.0,2,7]tetradeca-1,5,7,9-tetraen-8-yl}oxy)acetamido]benzamide and derivatives as inhibitor of clock:bmal1 interaction for the treatment of circadian rhythm diseases and disorders” (KOC UNIVERSITESI, priority 2019, dated 2026)

Tests used:
[1] = tested on: Per1::dluc NIH 3T3 cells; experiment: Real-time monitoring of circadian rhythm, Per1::dluc NIH 3T3; format: cell-based, mouse
Method: We used Bmal1::dluc U2-OS and Per1::dluc NIH 3T3, and continuously monitored the bioluminescence to record circadian rhythm. This experiment was performed in 96-well plates (triplicates) and 35-mm dishes (duplicates) in the secondary screen and detailed characterization steps respectively. Briefly, cells were seeded to reach confluency. A day after, the medium was replaced with DMEM containing 0.1 μM Dexamethasone to synchronize cells. […] The 96-well plates were covered and bioluminescence was monitored by Synergy H1 Hybrid Multi-Mode Reader every 32 minutes. […] Bioluminescence was recorded every 10 minutes for 4-6 days. […] The first day's data was excluded from the analysis due to transient perturbations of luminescence after the medium change.
We used Bmal1::dluc U2-OS and Per1::dluc NIH 3T3, and continuously monitored the bioluminescence to record circadian rhythm. […] The 96-well plates were covered and bioluminescence was monitored by Synergy H1 Hybrid Multi-Mode Reader every 32 minutes. […] Bioluminescence was recorded every 10 minutes for 4-6 days. […] The first day's data was excluded from the analysis due to transient perturbations of luminescence after the medium change.

[2] = biological target: T1, CLOCK (Homo sapiens, UniProt O15516); experiment: Pull-down assay with biotinylated CLK8, lysate of HEK293T cells overexpressing CLOCK and BMAL1; format: binding; set-up: expressed in transfected cells; host or cells: HEK293T; conditions: 200 μM competitor
T1 sequence (O15516 1-846): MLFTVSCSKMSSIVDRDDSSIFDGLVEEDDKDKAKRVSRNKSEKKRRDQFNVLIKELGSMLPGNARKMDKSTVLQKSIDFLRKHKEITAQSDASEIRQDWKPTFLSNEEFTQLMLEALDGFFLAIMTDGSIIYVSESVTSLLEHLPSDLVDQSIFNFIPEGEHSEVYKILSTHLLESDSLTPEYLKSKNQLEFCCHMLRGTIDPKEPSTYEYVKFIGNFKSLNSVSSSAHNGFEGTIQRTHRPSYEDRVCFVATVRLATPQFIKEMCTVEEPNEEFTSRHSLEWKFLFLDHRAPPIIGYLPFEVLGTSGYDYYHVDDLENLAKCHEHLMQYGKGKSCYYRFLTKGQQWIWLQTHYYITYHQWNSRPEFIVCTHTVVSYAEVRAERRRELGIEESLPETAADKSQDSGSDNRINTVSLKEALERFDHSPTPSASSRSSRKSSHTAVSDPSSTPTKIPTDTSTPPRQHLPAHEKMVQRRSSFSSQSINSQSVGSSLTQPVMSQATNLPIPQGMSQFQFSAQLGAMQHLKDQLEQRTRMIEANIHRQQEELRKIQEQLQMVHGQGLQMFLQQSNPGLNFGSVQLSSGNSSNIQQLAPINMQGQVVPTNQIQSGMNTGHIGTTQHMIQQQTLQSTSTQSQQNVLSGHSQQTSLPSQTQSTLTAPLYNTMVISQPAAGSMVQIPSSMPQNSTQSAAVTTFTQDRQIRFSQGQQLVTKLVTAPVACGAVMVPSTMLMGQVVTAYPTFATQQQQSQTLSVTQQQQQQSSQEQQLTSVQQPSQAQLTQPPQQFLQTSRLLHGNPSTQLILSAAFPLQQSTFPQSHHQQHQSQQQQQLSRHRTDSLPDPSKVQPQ
Method: HEK293T cells were transiently transfected with tag-free hsClock and mBmal1. After 48 hours of transfection, cells were harvested and whole cell lysate was prepared with ice-cold lysis buffer (50 mM Tris-HCl pH 7.4, 2 mM EDTA, 1 mM MgCl2, 0.2% NP-40, 1 mM sodium orthovanadate, 1 mM sodium fluoride and protease inhibitor cocktail) followed by centrifugation at 7000×g at 4° C. for 10 minutes. Lysate was diluted with ice-cold 2× binding buffer (100 mM Tris-HCl pH 7.4, 300 mM NaCl, 0.2% NP-40, 2 mM sodium orthovanadate, 2 mM sodium fluoride, and protease inhibitor cocktail) 27. The lysate was divided into three fractions to be treated with either DMSO, or 20 μM of bitoinylated-CLK8 (bait) with or without 200 μM CLK8 (competitor). The lysate-compound samples were incubated and mixed continuously at 4° C. for 1 hour. After equilibrating NeutroAvidin Agarose resin (Thermo Scientific) with lysis buffer, the lysate-compound mixture and NeutroAvidin Agarose resin were incubated and mixed continuously at 4° C. overnight. The beads were washed four times with 1× binding buffer. To elute the bound proteins Laemmli buffer was added and samples were heated at 95° C. for 7 minutes. The pull-down precipitates were subjected to SDS-PAGE and transferred to a PVDF membrane (Millipore). […]

- binding to CLOCK (competition with bait) [2]: specifically binds to CLOCK
Compound: CC1(C)CCc2c(cc(OCC(=O)Nc3ccccc3C(N)=O)c3c(-c4ccccc4)cc(=O)oc23)O1 [CLK8, 2-[2-({12,12-dimethyl-4-oxo-6-phenyl-3,11-dioxatricyclo [8.4.0.0,2,7]tetradeca-1,5,7,9-tetraen-8-yl}oxy)acetamido] benzamide]
- period of circadian rhythm [1]: no period changes
- amplitude of circadian rhythm ([1]; dose dependent): enhances the amplitude
